From the supplement of paper PMC8612539
Converted amounts (≈) assume the structure as drawn.

Columns and labels:
Pasteurella multocida = assay: minimum inhibitory concentration (MIC)
Method: (§1)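 Broth microdilution MIC (Sensititre BOPO7F bovine plate, CLSI methods) of 19 antimicrobials against field isolates of P. multocida, M. haemolytica, H. somni (deep nasopharyngeal swabs) and E. coli, Enterococcus spp. (rectal swabs) from weaned dairy heifers. Incubation 16-24 h at 35 C. MIC is the lowest concentration preventing visible growth. Values with <= or > lie at the tested range limits. Trimethoprim-sulfamethoxazole is given as the trimethoprim component of a 1:19 mixture.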

Enterococcus spp. = assay: minimum inhibitory concentration (MIC)
Method: as §1

CC[C@H]1OC(=O)C[C@@H](O)[C@H](C)[C@@H](O[C@@H]2O[C@H](C)[C@@H](O[C@H]3C[C@@](C)(O)[C@@H](O)[C@H](C)O3)[C@H](N(C)C)[C@H]2O)[C@@H](CC=O)C[C@@H](C)C(=O)/C=C/C(C)=C/[C@@H]1CO[C@@H]1O[C@H](C)[C@@H](O)[C@@H](OC)[C@H]1OC [Tylosin]
minimum inhibitory concentration [µg/mL]
Conditions	Enterococcus spp.	Pasteurella multocida
isolate (source animal id): 2	2 (≈ 2.18 µM)	–
isolate (source animal id): 35	> 32	–
isolate (source animal id): 42	2 (≈ 2.18 µM)	–
isolate (source animal id): 44	2 (≈ 2.18 µM)	–
isolate (source animal id): 79	2 (≈ 2.18 µM)	–
isolate (source animal id): 88	2 (≈ 2.18 µM)	–
isolate (source animal id): 91	2 (≈ 2.18 µM)	–
isolate (source animal id): 92	2 (≈ 2.18 µM)	–
isolate (source animal id): 111	2 (≈ 2.18 µM)	–
isolate (source animal id): 122	> 32	–
isolate (source animal id): 123	2 (≈ 2.18 µM)	–
isolate (source animal id): 133	2 (≈ 2.18 µM)	–
isolate (source animal id): 158	> 32	–
isolate (source animal id): 168	2 (≈ 2.18 µM)	–
isolate (source animal id): 169	2 (≈ 2.18 µM)	–
isolate (source animal id): 171	2 (≈ 2.18 µM)	–
isolate (source animal id): 175	> 32	–
isolate (source animal id): 177	4 (≈ 4.37 µM)	–
isolate (source animal id): 181	2 (≈ 2.18 µM)	–
isolate (source animal id): 182	2 (≈ 2.18 µM)	–
isolate (source animal id): 183	2 (≈ 2.18 µM)	–
isolate (source animal id): 187	2 (≈ 2.18 µM)	–
isolate (source animal id): 190	2 (≈ 2.18 µM)	–
isolate (source animal id): 194	2 (≈ 2.18 µM)	–
isolate (source animal id): 195	2 (≈ 2.18 µM)	–
isolate (source animal id): 197	2 (≈ 2.18 µM)	–
isolate (source animal id): 211	2 (≈ 2.18 µM)	–
isolate (source animal id): 214	2 (≈ 2.18 µM)	–
isolate (source animal id): 222	4 (≈ 4.37 µM)	–
isolate (source animal id): 223	2 (≈ 2.18 µM)	–
isolate (source animal id): 228	> 32	–
isolate (source animal id): 230	> 32	–
isolate (source animal id): 235	> 32	–
isolate (source animal id): 236	8 (≈ 8.73 µM)	–
isolate (source animal id): 239	2 (≈ 2.18 µM)	–
isolate (source animal id): 241	> 32	–
isolate (source animal id): 244	2 (≈ 2.18 µM)	–
isolate (source animal id): 246	2 (≈ 2.18 µM)	–
isolate (source animal id): 247	> 32	–
isolate (source animal id): 250	2 (≈ 2.18 µM)	–
isolate (source animal id): 252	> 32	–
isolate (source animal id): 268	> 32	–
isolate (source animal id): 269	–	> 32
isolate (source animal id): 270	–	> 32
isolate (source animal id): 274	–	> 32
isolate (source animal id): 275	–	> 32
isolate (source animal id): 276	–	> 32
isolate (source animal id): 277	–	> 32
isolate (source animal id): 278	–	> 32
isolate (source animal id): 279	–	> 32
isolate (source animal id): 280	–	> 32
isolate (source animal id): 282	2 (≈ 2.18 µM)	–
isolate (source animal id): 284	–	> 32
isolate (source animal id): 285	> 32	> 32
isolate (source animal id): 287	–	> 32
isolate (source animal id): 289	2 (≈ 2.18 µM)	–
isolate (source animal id): 290	4 (≈ 4.37 µM)	> 32
isolate (source animal id): 294	–	> 32
isolate (source animal id): 295	–	> 32
isolate (source animal id): 296	2 (≈ 2.18 µM)	> 32
isolate (source animal id): 298	≤ 0.5	–
isolate (source animal id): 301	2 (≈ 2.18 µM)	–
isolate (source animal id): 307	–	> 32
isolate (source animal id): 310	> 32	> 32
isolate (source animal id): 311	–	> 32
isolate (source animal id): 312	–	> 32
isolate (source animal id): 313	–	> 32
isolate (source animal id): 315	–	> 32
isolate (source animal id): 316	–	> 32
isolate (source animal id): 320	2 (≈ 2.18 µM)	–
isolate (source animal id): 331	4 (≈ 4.37 µM)	–
isolate (source animal id): 333	2 (≈ 2.18 µM)	–
isolate (source animal id): 341	> 32	–
